Laboratory results reported in PubChem BioAssay AID248 (DTP/NCI, 2004).
Values joined by “and” are separate entries in the source; they are usually repeats but may differ in a detail not shown here. Equal entries are not always repeated. Inconclusive results and toxic doses are left out. No stated cut-off is given here; in the data, active means T/C of 150% or more; inactive means T/C below 125%.

Tested on: L1210 leukemia ip in BDF1 mice, survival T/C
Assay: NCI In Vivo Anticancer Drug Screen. Data for tumor model L1210 Leukemia (intraperitoneal) in B6D2F1 (BDF1) mice
Conditions: endpoint: mean survival time, higher = longer survival
Method in brief: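 In this screen, tumor-bearing mice given compound are compared to those given vehicle, and their survival values are reported as a treated-to-control quotient.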

[1] = dose: 100.0 mg/kg/injection, schedule: Q04DX003 (ip), vehicle: Klucel (hydroxypropylcellulose) (HPC)
[2] = dose: 200.0 mg/kg/injection, schedule: Q04DX003 (ip), vehicle: Klucel (hydroxypropylcellulose) (HPC)
[3] = dose: 100.0 mg/kg/injection, schedule: Q01DX001 (ip), vehicle: carboxymethylcellulose (CMC)
[4] = dose: 200.0 mg/kg/injection, schedule: Q01DX001 (ip), vehicle: carboxymethylcellulose (CMC)
[5] = dose: 25.0 mg/kg/injection, schedule: Q01DX009 (ip), vehicle: Klucel (hydroxypropylcellulose) (HPC)
[6] = dose: 50.0 mg/kg/injection, schedule: Q01DX009 (ip), vehicle: Klucel (hydroxypropylcellulose) (HPC)
[7] = dose: 100.0 mg/kg/injection, schedule: Q01DX009 (ip), vehicle: Klucel (hydroxypropylcellulose) (HPC)
[8] = dose: 100.0 mg/kg/injection, schedule: Q04DX002 (ip), vehicle: Klucel (hydroxypropylcellulose) (HPC)
[9] = dose: 100.0 mg/kg/injection, schedule: Q01DX009 (ip), vehicle: saline with Tween-80
[10] = dose: 100.0 mg/kg/injection, schedule: Q04DX003 (ip), vehicle: saline with Tween-80
[11] = dose: 200.0 mg/kg/injection, schedule: Q01DX009 (ip), vehicle: saline with Tween-80
[12] = dose: 200.0 mg/kg/injection, schedule: Q04DX003 (ip), vehicle: saline with Tween-80
[13] = dose: 400.0 mg/kg/injection, schedule: Q01DX009 (ip), vehicle: saline with Tween-80
[14] = dose: 400.0 mg/kg/injection, schedule: Q04DX003 (ip), vehicle: saline with Tween-80
[15] = dose: 100.0 mg/kg/injection, schedule: Q01DX001 (ip), vehicle: saline with Tween-80
[16] = dose: 100.0 mg/kg/injection, schedule: Q04DX002 (ip), vehicle: saline with Tween-80
[17] = dose: 200.0 mg/kg/injection, schedule: Q01DX001 (ip), vehicle: saline with Tween-80
[18] = dose: 200.0 mg/kg/injection, schedule: Q04DX002 (ip), vehicle: saline with Tween-80
[19] = dose: 400.0 mg/kg/injection, schedule: Q04DX002 (ip), vehicle: saline with Tween-80
[20] = dose: 200.0 mg/kg/injection, schedule: Q01DX009 (ip), vehicle: Klucel (hydroxypropylcellulose) (HPC)
[21] = dose: 50.0 mg/kg/injection, schedule: Q04DX003 (ip), vehicle: Klucel (hydroxypropylcellulose) (HPC)
[22] = dose: 100.0 mg/kg/injection, schedule: Q01DX001 (ip), vehicle: saline
[23] = dose: 200.0 mg/kg/injection, schedule: Q01DX001 (ip), vehicle: saline
[24] = dose: 400.0 mg/kg/injection, schedule: Q01DX001 (ip), vehicle: saline
[25] = dose: 50.0 mg/kg/injection, schedule: Q01DX009 (ip), vehicle: saline with Tween-80

Measured: T/C

CN(C)C(=S)Oc1c(Cl)cc(Cl)cc1S(=O)(=O)F
inactive: [1] 104 % of control | [2] 98 % of control | dose: 400.0 mg/kg/injection, schedule: Q04DX003 (ip), vehicle: Klucel (hydroxypropylcellulose) (HPC) 98 % of control

COC(=O)c1ccc(O)c(C(=O)OC)c1
inactive: [3] 92 % of control | [4] 97 % of control | dose: 400.0 mg/kg/injection, schedule: Q01DX001 (ip), vehicle: carboxymethylcellulose (CMC) 103 % of control

COc1ccc(OC)c(NC(=O)CCl)c1
inactive: [5] 96 % of control | dose: 25.0 mg/kg/injection, schedule: Q04DX002 (ip), vehicle: Klucel (hydroxypropylcellulose) (HPC) 96 % of control | [6] 98 % of control | dose: 50.0 mg/kg/injection, schedule: Q04DX002 (ip), vehicle: Klucel (hydroxypropylcellulose) (HPC) 93 % of control | [7] 89 % of control and 90 % of control | [8] 93 % of control and 106 % of control

c1ccc(CCSc2ccccc2)cc1
inactive: [9] 102 % of control | [10] 103 % of control | [11] 98 % of control | [12] 97 % of control | [13] 95 % of control | [14] 94 % of control

O=C(CSCCCCl)OCCSCCCCl
inactive: dose: 17.5 mg/kg/injection, schedule: Q01DX Z (ip), vehicle: saline 93 % of control | dose: 70.0 mg/kg/injection, schedule: Q01DX Z (ip), vehicle: saline 104 % of control

CCCN(CCC)N=Nc1ccccc1C(N)=O
inactive: dose: 100.0 mg/kg/injection, schedule: Q01DX001 (ip), vehicle: other 107 % of control | [9] 90 % of control | [10] 104 % of control | dose: 200.0 mg/kg/injection, schedule: Q01DX001 (ip), vehicle: other 102 % of control | [11] 102 % of control | [12] 94 % of control | dose: 400.0 mg/kg/injection, schedule: Q01DX001 (ip), vehicle: other 103 % of control | [14] 98 % of control

COc1cccc(NC(=S)Nc2cccc(OC)c2)c1
inactive: [15] 108 % of control | [9] 95 % of control | [16] 91 % of control | [17] 104 % of control | [11] 92 % of control and 100 % of control | [18] 94 % of control and 96 % of control | dose: 400.0 mg/kg/injection, schedule: Q01DX001 (ip), vehicle: saline with Tween-80 101 % of control | [13] 90 % of control | [19] 104 % of control and 88 % of control

CCOC(=O)c1ccc(=O)n(C)c1
inactive: dose: 100.0 mg/kg/injection, schedule: Q01DX009 (ip), vehicle: saline 102 % of control | dose: 200.0 mg/kg/injection, schedule: Q01DX009 (ip), vehicle: saline 96 % of control | dose: 400.0 mg/kg/injection, schedule: Q01DX009 (ip), vehicle: saline 98 % of control

Cc1c(Cl)cccc1NC(=O)Sc1ccc(C(C)(C)C)cc1
inactive: [7] 100 % of control | [20] 90 % of control | dose: 400.0 mg/kg/injection, schedule: Q01DX009 (ip), vehicle: Klucel (hydroxypropylcellulose) (HPC) 98 % of control

O=C1OCOC1C1OCOC1=O (stereo unspecified)
inactive: dose: 55.0 mg/kg/injection, schedule: Q01DX Z (ip), vehicle: methylcellulose (MC) 119 % of control | dose: 83.0 mg/kg/injection, schedule: Q01DX Z (ip), vehicle: methylcellulose (MC) 104 % of control | dose: 125.0 mg/kg/injection, schedule: Q01DX Z (ip), vehicle: methylcellulose (MC) 111 % of control

CCOC(=O)c1ccc(NC(=O)c2cccc(Cl)c2)cc1
inactive: [8] 94 % of control

O=C1OC(=O)C2C3OC(C(Cl)C3Cl)C12 (stereo unspecified)
inactive: [7] 106 % of control | [20] 106 % of control

COc1ncnc(Cl)c1[N+](=O)[O-]
inactive: [21] 92 % of control | [1] 92 % of control and 86 % of control | [2] 97 % of control and 91 % of control

O=C1/C(=C\c2cccc3ccccc23)CS(=O)(=O)C/C1=C/c1cccc2ccccc12
inactive: [22] 95 % of control | [23] 94 % of control | [24] 94 % of control

Cc1ccccc1[As](c1ccccc1C)c1ccccc1C
inactive: [10] 87 % of control

COC(=O)/C(=C\c1ccccc1)CNC(C)(C)C
inactive: [22] 100 % of control | [23] 97 % of control

C/C(=N\[N+](C)(C)C)c1ccc2ccccc2c1
inactive: [5] 101 % of control | dose: 25.0 mg/kg/injection, schedule: Q04DX003 (ip), vehicle: Klucel (hydroxypropylcellulose) (HPC) 101 % of control | [6] 100 % of control | [21] 105 % of control | [7] 90 % of control | [1] 95 % of control and 105 % of control

N=C(CCCc1ccccc1)SCc1ccccc1
inactive: [25] 103 % of control | dose: 50.0 mg/kg/injection, schedule: Q04DX003 (ip), vehicle: saline with Tween-80 94 % of control | [15] 102 % of control | [9] 92 % of control | [10] 93 % of control | [17] 102 % of control

O=C1NC(CCCl)C(=O)NC1CCCl (stereo unspecified)
inactive: dose: 50.0 mg/kg/injection, schedule: Q01DX001 (ip), vehicle: carboxymethylcellulose (CMC) 107 % of control | [3] 101 % of control | [4] 91 % of control

Cc1ccc(S(=O)(=O)N/N=C(\CSc2ccc(N(C)C)cc2)c2ccccc2)cc1
inactive: dose: 50.0 mg/kg/injection, schedule: Q04DX002 (ip), vehicle: saline with Tween-80 105 % of control | [16] 86 % of control | [18] 97 % of control | [19] 90 % of control

CCN(CC)c1ccc(NC(=O)NC(C)C)cc1
inactive: [25] 101 % of control | [9] 108 % of control | [10] 105 % of control | [11] 97 % of control | [12] 103 % of control

Fc1ccc(C=C2c3ccccc3-c3ccccc32)cc1
inactive: dose: 25.0 mg/kg/injection, schedule: Q04DX002 (ip), vehicle: gum acacia 109 % of control | dose: 50.0 mg/kg/injection, schedule: Q04DX002 (ip), vehicle: gum acacia 92 % of control | dose: 100.0 mg/kg/injection, schedule: Q04DX002 (ip), vehicle: gum acacia 92 % of control

Nc1ncnc2c1ncn2C1OC(CO)C(O)C1O.[Cl][Pt][Cl] (stereo unspecified)
inactive: dose: 100.0 mg/kg/injection, schedule: Q01DX009 (ip), vehicle: water 97 % of control | dose: 100.0 mg/kg/injection, schedule: Q04DX003 (ip), vehicle: water 94 % of control | dose: 200.0 mg/kg/injection, schedule: Q01DX009 (ip), vehicle: water 103 % of control | dose: 200.0 mg/kg/injection, schedule: Q04DX003 (ip), vehicle: water 97 % of control | dose: 400.0 mg/kg/injection, schedule: Q01DX009 (ip), vehicle: water 100 % of control | dose: 400.0 mg/kg/injection, schedule: Q04DX003 (ip), vehicle: water 94 % of control

CCOC(=O)CCc1ccc(N=NN(C)C)cc1
inactive: dose: 125.0 mg/kg/injection, schedule: Q01DX009 (ip), vehicle: saline 115 % of control

c1ccc(C(=NN(CCN(N=C(c2ccccc2)c2ccccc2)c2ccccc2)c2ccccc2)c2ccccc2)cc1
inactive: dose: 50.0 mg/kg/injection, schedule: Q01DX001 (ip), vehicle: saline 101 % of control | [22] 92 % of control | [23] 86 % of control | [24] 92 % of control

Cc1ccnc([N+](=O)[O-])c1
inactive: [9] 103 % of control | [11] 92 % of control | [13] 106 % of control

N#Cc1cnc(N)nc1N
inactive: [21] 113 % of control | dose: 75.0 mg/kg/injection, schedule: Q01DX001 (ip), vehicle: carboxymethylcellulose (CMC) 92 % of control | dose: 75.0 mg/kg/injection, schedule: Q01DX009 (ip), vehicle: Klucel (hydroxypropylcellulose) (HPC) 102 % of control | [1] 97 % of control | dose: 150.0 mg/kg/injection, schedule: Q01DX001 (ip), vehicle: carboxymethylcellulose (CMC) 92 % of control | dose: 150.0 mg/kg/injection, schedule: Q01DX009 (ip), vehicle: Klucel (hydroxypropylcellulose) (HPC) 102 % of control | [2] 108 % of control
